According to paper PMC5807445, “A printable hydrogel microarray for drug screening avoids false positives associated with promiscuous aggregating inhibitors” (Nature Communications, 2018):

Assays:
β-lactamase = conditions: reported literature values; cited from earlier work
[1] = Promiscuous aggregating inhibitor size measurement by dynamic light scattering (DLS); assay type: physicochemical; conditions: 100 μM solutions; for Aggregate size (Z-average diameter, DLS) / Polydispersity (DLS): 23°C
Experimental: Promiscuous aggregating inhibitor size measurement
Dynamic light scattering measurements were performed using a Zetasizer Nano ZS instrument (Malvern). The intensity of backscattered light was measured at a 173° angle. Data collection and analysis were performed using the Dispersion Technology Software (version 6.0) from Malvern. Samples of Rottlerin, BIS IX and TIPT at 100 μM concentrations were analyzed in a plastic cuvette with a 10 mm path length. Prior to measurement, samples were equilibrated for 120 s at 23°C. For each sample, 10 runs were performed with three repetitions. The intensity size distribution, Z-average diameter and polydispersity index was collected for each sample. Note that no significant signal was acquired from DLS measurements on the true inhibitors, confirming their solution state.

TEM-1 β-lac [2] = target: T1, TEM-1 β-lac (Escherichia coli, UniProt P62593); assay: Printed hydrogel-based β-lac assay (nitrocefin, colorimetric image analysis); assay type: biochemical; conditions: promiscuous aggregating inhibitors; starting concentration 100 μM
Experimental: Inhibitor solutions and nitrocefin (a colorimetric β-lac substrate) were subsequently deposited on the microzones at different concentrations using a high-throughput dispensing robot. The resulting colorimetric read-out of β-lac activity was quantified via image analysis.
POH ink solution was prepared with a final concentration of 50 nM β-lac and used to print hydrogel spots on a 96-well paper microzone plate as described previously. […] The inhibitor was incubated with the printed β-lac for 20 min, after which the assay was initiated with the addition of 5 μl of nitrocefin (500 μM) to each microzone. […] Images were taken with a Canon DSLR camera (operated in manual focus mode without flash) after 25 min. The wax-printed background was filtered out using GIMP software (Version 2.8.16). Image analysis was performed using Fiji, with the converted substrate color extracted using the Color Deconvolution plugin. Extracted images were inverted and converted to 8 bit grayscale images. The intensity of each sample was measured and presented as a ratio of the control image (i.e., a microzone not treated with inhibitor). Calculation of IC50 values was carried out in OriginPro by plotting the calculated percentage inhibition against the added inhibitor concentration. Curve fitting was performed with the dose–response function (OriginLab Corporation, Northampton, MA, USA).

TEM-1 β-lac [3] = target: T1, TEM-1 β-lac; assay: Solution-based β-lac assay (nitrocefin hydrolysis, absorbance at 492 nm); assay type: biochemical; conditions: promiscuous aggregating inhibitors; diluted from 10 mM DMSO stocks

T1 sequence (P62593 24-286 limits assumed): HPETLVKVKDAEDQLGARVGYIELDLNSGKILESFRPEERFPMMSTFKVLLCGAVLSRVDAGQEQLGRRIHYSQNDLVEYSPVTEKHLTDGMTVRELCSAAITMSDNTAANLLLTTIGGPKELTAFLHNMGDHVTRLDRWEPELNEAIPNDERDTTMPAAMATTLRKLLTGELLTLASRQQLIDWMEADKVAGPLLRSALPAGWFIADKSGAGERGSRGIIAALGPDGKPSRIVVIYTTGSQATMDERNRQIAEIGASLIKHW

CC1(C)[C@H](C(=O)O)N2C(=O)C[C@H]2S1(=O)=O [Sulbactam, sulbactam]
IC50 (β-lactamase): 6.1 µM

[H]/N=C(/N)SCCCn1cc(C2=C(c3cn(C)c4ccccc34)C(=O)NC2=O)c2ccccc21 [BIS IX, bisindolylmaleimide IX]
Particle size range of aggregates (DLS intensity distribution) [1]: 50-800 nm | Aggregate size (Z-average diameter, DLS) [1]: 365 ± 9 nm | Polydispersity (DLS) [1]: 0.36 ± 0.02 | Specific inhibition of β-lac in the hydrogel-based assay (TEM-1 β-lac [2]): no specific inhibition | Inhibition of β-lac in the solution-based assay (false-positive hit) (TEM-1 β-lac [3]): inhibited

C[C@]1(Cn2ccnn2)[C@H](C(=O)O)N2C(=O)C[C@H]2S1(=O)=O [Tazobactam, tazobactam]
IC50 (β-lactamase): 0.04 µM

O=C1OC(c2cc(I)c(O)c(I)c2)(c2c(I)cc(O)cc2I)c2ccccc21 (centres unmarked) [TIPT, tetraiodophenolphthalein]
Particle size range of aggregates (DLS intensity distribution) [1]: 50-800 nm | Aggregate size (Z-average diameter, DLS) [1]: 154 ± 1 nm | Polydispersity (DLS) [1]: 0.16 ± 0.02 | Specific inhibition of β-lac in the hydrogel-based assay (TEM-1 β-lac [2]): no specific inhibition | Inhibition of β-lac in the solution-based assay (false-positive hit) (TEM-1 β-lac [3]): inhibited

CC(=O)c1c(O)c(C)c(O)c(Cc2c(O)c3c(c(C(=O)/C=C/c4ccccc4)c2O)OC(C)(C)C=C3)c1O [Rottlerin, rottlerin]
Particle size range of aggregates (DLS intensity distribution) [1]: 50-800 nm | Aggregate size (Z-average diameter, DLS) [1]: 188 ± 1 nm | Polydispersity (DLS) [1]: 0.24 ± 0.01 | Specific inhibition of β-lac in the hydrogel-based assay (TEM-1 β-lac [2]): no specific inhibition | Inhibition of β-lac in the solution-based assay (false-positive hit) (TEM-1 β-lac [3]): inhibited
